Results as given in US20150197492A1, “NOVEL INDENO[1,2-c]QUINOLIN-11-ONE DERIVATIVES, PREPARATION METHOD AND APPLICATION THEREOF” (National Defense Medical Center, priority 2014, published 2015).
Read-outs that look alike come from different tables or passages of the source.

How the values were obtained:
Format in all cases: cell-based
[1] = test system: SNB-19; assay: cells; details: SNB-19 (CNS Cancer), 10 μM, 48 hours
[2] = test system: NCI-H322M; assay: cells; details: NCI-H322M (Non-Small Cell Lung Cancer), 10 μM, 48 hours
[3] = test system: ACHN; assay: cells; details: ACHN (Renal Cancer), 10 μM, 48 hours
[4] = test system: SF-539; assay: cells; details: SF-539 (CNS Cancer), 10 μM, 48 hours
[5] = test system: DU-145; assay: cells; details: DU-145 (Prostate Cancer), 10 μM, 48 hours
[6] = test system: MDA-MB-231/ATCC; assay: cells; details: MDA-MB-231/ATCC (Breast Cancer), 10 μM, 48 hours
[7] = test system: T-47D; assay: cells; details: T-47D (Breast Cancer), 10 μM, 48 hours
[8] = test system: MDA-MB-468; assay: cells; details: MDA-MB-468 (Breast Cancer), 10 μM, 48 hours
[9] = test system: OVCAR-8; assay: cells; details: OVCAR-8 (Ovarian Cancer), 10 μM, 48 hours
[10] = test system: NCI-H460; assay: cells; details: NCI-H460 (Non-Small Cell Lung Cancer), 10 μM, 48 hours
[11] = test system: OVCAR-4; assay: cells; details: OVCAR-4 (Ovarian Cancer), 10 μM, 48 hours
[12] = test system: human PC-3 cells; assay: Sulforhodamine B (SRB) assay, cytotoxicity against PC-3 cells; details: for IC50: Homo sapiens
Summary of the method: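 PC-3 cells in 5% FBS were fixed with 10% TCA after 24 h as T0, then treated with compound for 48 h, fixed, stained with 0.4% SRB in 1% acetic acid and solubilized in 10 mmol/L Trizma base. Absorbance was read at 515 nm. GI% = 100−[(Tx−T0)/(C−T0)]×100, and IC50 is the concentration halving total protein.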

[13] = test system: SN12C; assay: cells; details: SN12C (Renal Cancer), 10 μM, 48 hours
[14] = test system: A498; assay: cells; details: A498 (Renal Cancer), 10 μM, 48 hours
[15] = test system: UACC-62; assay: cells; details: UACC-62 (Melanoma), 10 μM, 48 hours
[16] = test system: MCF7; assay: cells; details: MCF7 (Breast Cancer), 10 μM, 48 hours
[17] = test system: SF-295; assay: cells; details: SF-295 (CNS Cancer), 10 μM, 48 hours
[18] = test system: LOX IMVI; assay: cells; details: LOX IMVI (Melanoma), 10 μM, 48 hours
[19] = test system: SK-OV-3; assay: cells; details: SK-OV-3 (Ovarian Cancer), 10 μM, 48 hours
[20] = test system: U251; assay: cells; details: U251 (CNS Cancer), 10 μM, 48 hours
[21] = test system: M14; assay: cells; details: M14 (Melanoma), 10 μM, 48 hours
[22] = test system: SR; assay: cells; details: SR (Leukemia), 10 μM, 48 hours
[23] = test system: 55 to 60 cancer cell lines; details: 10 μM; for inhibition effect in different cancer cell lines (summary of the NCI data, in words) / Mean (mean growth percentage of the tested cancer cell lines): 48 hours; for Mean (mean growth percentage of the tested cancer cell lines): all tested cell lines
[24] = test system: COLO 205; assay: cells; details: COLO 205 (Colon Cancer), 10 μM, 48 hours
[25] = test system: NCI-H226; assay: cells; details: NCI-H226 (Non-Small Cell Lung Cancer), 10 μM, 48 hours
[26] = test system: SW-620; assay: cells; details: SW-620 (Colon Cancer), 10 μM, 48 hours
[27] = test system: K-562; assay: cells; details: K-562 (Leukemia), 10 μM, 48 hours
[28] = test system: SNB-75; assay: cells; details: SNB-75 (CNS Cancer), 10 μM, 48 hours
[29] = test system: PC-3; assay: cells; details: PC-3 (Prostate Cancer), 10 μM, 48 hours
[30] = test system: MALME-3M; assay: cells; details: MALME-3M (Melanoma), 10 μM, 48 hours

| Compound | growth percentage [1] | growth percentage [2] | growth percentage [3] | growth percentage [4] | growth percentage [5] | growth percentage [6] | growth percentage [7] | growth percentage [8] | growth percentage [9] | growth percentage [10] | growth percentage [13] | growth percentage [15] | growth percentage [16] | growth percentage [18] | growth percentage [20] | growth percentage [21] | Mean (mean growth percentage of the tested cancer cell lines) [23] | growth percentage [24] | growth percentage [25] | growth percentage [26] | also measured |
| --- | --- | --- | --- | --- | --- | --- | --- | --- | --- | --- | --- | --- | --- | --- | --- | --- | --- | --- | --- | --- | --- |
| CNc1nc2ccccc2c2c1-c1ccc(Cl)cc1C2=O [SJ-1, 9-Chloro-6-(methylamino)-11H-indeno[1,2-c]quinolin-11-one] | 95.95% | 80.85% | 88.46% | 92.08% | 106.88% | 83.87% | 23.53% | -31.61% | 94.33% | 84.38% | 94.82% | 77.41% | 5.24% | 93.40% | 96.03% | 112.68% | 84.15% | 66.47% | 92.19% | 96.25% | growth percentage [11]: 72.83%; Toxicity (%) ([12]; SRB assay, PC-3 cells): 52.8%; GI % (10 μM) ([12]; SRB assay, PC-3 cells, 10 μM): 100%; growth percentage [14]: 82.03%; growth percentage [17]: 95.71%; growth percentage [19]: 92.62%; growth percentage [22]: 91.67%; inhibition effect in different cancer cell lines (summary of the NCI data, in words) [23]: more effective in breast cancer cell line; growth percentage [27]: 90.99%; growth percentage [28]: 79.70%; growth percentage [29]: 89.44%; growth percentage [30]: 114.83% |
| CN(C)c1nc2ccccc2c2c1-c1ccc(Cl)cc1C2=O [SJ-2, 9-Chloro-6-(dimethylamino)-11H-indeno[1,2-c]quinolin-11-one] | 104.19% | 78.83% | 87.55% | 87.80% | 106.50% | 76.68% | 44.88% | 0.60% | 84.55% | 94.17% | 95.38% | 78.16% | 23.99% | 85.45% | 98.98% | 113.63% | 87.15% | 100.97% | 84.79% | 96.35% | growth percentage [11]: 84.28%; IC50 ([12]; PC-3, 48 h): 4.34 µM; growth percentage [14]: 96.00%; growth percentage [17]: 93.22%; growth percentage [19]: 99.12%; growth percentage [22]: 86.12%; inhibition effect in different cancer cell lines (summary of the NCI data, in words) [23]: more effective in breast cancer cell line; growth percentage [27]: 88.81%; growth percentage [28]: 69.12%; growth percentage [29]: 82.55%; growth percentage [30]: 111.50% |
| COc1nc2ccccc2c2c1-c1ccc(Cl)cc1C2=O [SJ-27, 6-Methoxy-9-chloro-11H-indeno[1,2-c]quinolin-11-one] | 96.35% | 99.80% | 90.83% | 91.49% | 121.06% | 74.61% | 78.97% | 99.51% | 98.75% | 98.27% | 89.48% | 74.08% | 71.98% | 116.91% | 97.67% | 96.50% | 96.23% | 108.91% | 89.22% | 98.89% | growth percentage [14]: 93.51%; growth percentage [19]: 119.79%; growth percentage [27]: 108.53%; growth percentage [28]: 59.75%; growth percentage [29]: 74.44%; growth percentage [30]: 107.54% |
| O=C1c2cc(Cl)ccc2-c2c(Cl)nc3ccccc3c21 [TC-XCl-1, 6,9-Dichloro-11H-indeno[1,2-c]quinolin-11-one] | 101.30% | 95.38% | 111.67% | 110.08% | 113.91% | 87.66% | 86.97% | 107.92% | 101.08% | 98.68% | 88.03% | 94.45% | 74.25% | 84.23% | 100.63% | 109.79% | 98.17% | 99.18% | 91.86% | 98.29% | growth percentage [11]: 94.13%; IC50 ([12]; SRB assay, PC-3 cells, 48 hours, read-out: IC50): > 15 µM; growth percentage [17]: 92.80%; growth percentage [22]: 65.85%; number of cancer cell lines whose growth is inhibited ([23]; including leukemia and breast cancer cells): 9; growth percentage [27]: 102.16%; growth percentage [28]: 82.91%; growth percentage [29]: 92.73%; growth percentage [30]: 102.06% |
